Broadly, the IC50 is the midpoint of a concentration-inhibition curve. The term CC50 denotes the concentration that lowers cell viability or growth by half.

From ChEMBL document CHEMBL4229464, “Generation of methylated violapyrones with improved anti-influenza A virus activity by heterologous expression of a type III PKS gene in a marine Streptomyces strain” (Bioorg Med Chem Lett, 2018) come the findings set out here.

Data set [1] concerns H3N2 subtype. The data set can be described thus: Antiviral activity against Influenza A virus (A/Aichi/2/1968(H3N2)) infected in MDCK cells assessed as inhibition of virus-induced cytopathicity after 48 hrs by crystal violet staining based method. Type of data set: functional, organism-based.
Data set [2] has as its system Staphylococcus aureus. The data set can be described thus: Antibacterial activity against methicillin-resistant Staphylococcus aureus CCARM 3090 at 10 mg/ml after 20 hrs by agar diffusion method. Type of data set: functional. The conditions noted are these: CCARM 3090, 20 h, read-out: IZ.
Data set [3] can be described thus: Cytotoxicity against MDCK cells assessed as reduction in cell viability after 48 hrs by crystal violet staining based method. The conditions noted are these: dog. Set-up: species or system Canis lupus familiaris.
Data set [4] concerns Influenza A virus. The data set can be described thus: Antiviral activity against Influenza A virus (A/Virginia/ATCC1/2009(H1N1)) infected in MDCK cells assessed as inhibition of virus-induced cytopathicity after 48 hrs by crystal violet staining based method. Type of data set: functional, organism-based.

Consider `Cc1c(O)c(CCCCC(C)C)coc1=O`, for which the IC50 amounted to 150 µM in data set [1] and 132 µM in data set [4]. Besides, the zone of inhibition at 10000 µg/mL in data set [2] was 11 mm. Further, in data set [3], the CC50 at 48 h turned out to be 1290 µM.

Take `CCC(C)CCCCc1coc(=O)c(C)c1OC` (stereo not given): the IC50 in data set [1] was found to be 72.8 µM; in data set [4], 68.4 µM. In addition, the zone of inhibition at 10000 µg/mL in data set [2] is 0 mm. Besides, the CC50 at 48 h in data set [3] was 1550 µM.

Take `CCC(C)CCCCc1coc(=O)c(C)c1O` (stereo not given): the 50% inhibitory concentration (IC50) turned out to be 82.3 µM in data set [1] and 79.3 µM in data set [4]. For the same compound, the zone of inhibition at 10000 µg/mL in data set [2] turned out to be 18 mm. In addition, the CC50 at 48 h in data set [3] was determined as 1620 µM.

In the case of `CCCCCCCc1coc(=O)c(C)c1O`, the IC50 in data set [1] and in data set [4] was 74.3 µM each time. Moreover, the zone of inhibition at 10000 µg/mL in data set [2] is 11 mm. Also, the half-maximal cytotoxic concentration (CC50) at 48 h in data set [3] turned out to be 2200 µM.

`Cc1c(O)c(CCCC(C)C)coc1=O`: the IC50 worked out at 104 µM in data set [1] and 60.9 µM in data set [4]. The zone of inhibition at 10000 µg/mL in data set [2] was determined as 0 mm. Further, the CC50 at 48 h in data set [3] came out at 1240 µM.

On to `COc1c(CCCC(C)C)coc(=O)c1C`, for which the IC50 in data set [1] was determined as 95 µM; in data set [4] it was 58.8 µM. Besides, the zone of inhibition at 10000 µg/mL in data set [2] is 0 mm. Further, the CC50 at 48 h in data set [3] worked out at 2000 µM.

`CCCCCCCc1coc(=O)c(C)c1OC`: the IC50 stood at 45.3 µM in data set [1] and 30.6 µM in data set [4]. In data set [2], the zone of inhibition at 10000 µg/mL is 0 mm. The CC50 at 48 h in data set [3] was determined as 2230 µM.

Consider `NC(=O)c1ncn([C@@H]2O[C@H](CO)[C@@H](O)[C@H]2O)n1` [RIBAVIRIN], for which the IC50 was 99.6 µM in data set [1] and 66.7 µM in data set [4]. Moreover, the CC50 at 48 h in data set [3] was found to be 1370 µM.

For `COc1c(CCCCC(C)C)coc(=O)c1C`, the IC50 in data set [1] was 63.9 µM; in data set [4], 64.9 µM. Moreover, in data set [2], the zone of inhibition at 10000 µg/mL is 6 mm. In addition, the CC50 at 48 h in data set [3] is 1880 µM.
